Source: patent publication US4170647A, “Method for the control of Arizona hinshawii in poultry with an alkylated BM123γ-type antibiotic” (American Cyanamid Company, priority 1978, dated 1979)

Tested on: Arizona hinshawii
Test: In vitro activity against six strains of Arizona hinshawii (minimum inhibitory concentration, broth dilution)
Assay type: cell-based
Settings: trypticase soy broth, 24 hours at 37° C.
Procedure: Serial, two-fold dilutions of drugs are prepared in trypticase soy broth (TSB). To each tube containing 5 ml of broth is added 0.1 ml of a 10^-3 dilution of bacterial inoculum (six strains of Arizona hinshawii, originally isolated from clinical cases of Arizonosis of turkeys), adjusted prior to dilution to 44% transmission at 645 mμ. An inoculated broth, containing no drug is included as growth control for each strain tested. The minimum inhibitory conentration (MIC) is read as the highest dilution of drug showing no visble growth after 24 hours incubation at 37° C.

Measured: Minimum Inhibitory Concentration

Gentamicin
2 µg/mL: Isolate Number 1 | Isolate Number 2 | Isolate Number 3 | Isolate Number 4 | Isolate Number 5 | Isolate Number 6
